From US11274332B2, “Methods of administering 3,4-diaminopyridine” (SERB SA, priority 2011, dated 2022)

Test system: rat hepatocytes
Experiment: In vitro metabolism of 14C-amifampridine in rat hepatocytes (Example 1)
Type: in vitro ADME
Description: The objective of this hepatocyte study was to determine the extent of metabolism, complete metabolic profile and metabolite characterization of amifampridine phosphate in several species with ^14C-amifampridine phosphate for a cross species comparison. The following procedures were used to study the metabolism in rat (Example 1), dog (Example 2), and human hepatocytes (Example 3).
The cryopreserved hepatocytes were removed from storage, quickly thawed in a 37° C. water bath for 1 to 2 min, and transferred to a 50 ml tube containing pre-warmed InVitroGRO HT medium (Celsis Inc., Baltimore). The cell suspension was mixed by gentle inversion and the cells were pelleted by centrifugation at 50 to 75×g for 5 min. The supernatant medium was removed and the cells were resuspended in Williams' Medium E. Hepatocyte viability was assessed by using trypan blue exclusion. Hepatocyte density was determined by counting cells with a hemocytometer and the density was adjusted with Williams' Medium E to achieve a final density of 1,000,000 cells/mL. […] The supernatant medium was removed and the cells were resuspended in cold Williams' Medium E. The cell density was then determined using a hemocytometer and the density was adjusted with Williams' Medium E to achieve a final density of 1,000,000 cells/mL. […]

Nc1ccncc1N [3,4-DAP, 3,4-diaminopyridine]
formation of single major acetylated amifampridine metabolite: extensive
